Assays:
hippocampal neural cells = experiment: Mitotic appearance (doublet cell body) of cultured hippocampal neural cells; assay type: cell-based, rat
Procedure: Hippocampal neural cells were obtained from an embryonic day 18 rat hippocampus. The samples contained approximately 12,000 neurons/sample. The sample was 95% neuronal. No selection for neuronal subtypes was conducted. Hippocampal neurons were treated with 3α-hydroxy-5α-pregnan-20-one (THP). 3α-hydroxy-5α-pregnan-20-one (THP) was added to two samples containing hippocampal neural cells at a concentration of either 10 nanomolar (nM) and 100 nanomolar (nM). The cells were incubated for 24 hrs at 37° C. Neurons were grown in a defined medium, Neurobasal+B27 supplement in the absence (control) or presence of THP or other test molecule (experimental). The samples with added THP were compared with a control sample containing only hippocampal neural cells. Changes in the mitotic appearance of the neural cells were observed. A mitotic appearance of a particular neural cell is defined as a doublet form in the cell body of the neural cell. The doublet form is indicative of a neural cell undergoing mitosis.
The experiment described above was repeated only THP was added to three samples containing hippocampal neural cells at a concentration of 100 nanomolar (nM), 250 nM and 500 nM. The samples with added THP were compared with a control sample containing only hippocampal neural cells. […] Data are expressed as percent of mean+SEM,**p<0.01, ***p<. 001.

hippocampal neurons = experiment: Expression of cell proliferating markers Ki-67 and cdc2 in hippocampal neurons; assay type: cell-based, rat
Source text: Expression of cell cycle proteins have been successfully used to evaluate cellular proliferation. One such protein is the nuclear proliferation protein, Ki-67, which is expressed during the G1, S, G2, and M phases of the cell cycle, but is not expressed during the Go (resting) phase. Because Ki-67 antigen has a short half-life, it can be used as a marker of actively proliferating cells. Another cell cycle protein is cell division control protein 2 (cdc2) which is a cyclin dependent kinase (also called CDK1) which plays a crucial role in the G1/S and G2/M phase. If THP induces neuronal proliferation, cell proliferation markers should be elevated.
Hippocampal neurons were treated with THP at a concentration of 250 nM for 72 hours and immunostained with antibodies for the nuclear proliferation marker, ki-67 antigen, which appears yellow. […] The cell cycle protein cdc2 is also observed in a dose dependent fashion (see FIG. 4).
For this experiment, neurons were collected following 24 hrs of THP exposure. Forty μg protein of the total cell lysate was loaded and separated by 12% SDS-gel using antibody (Ahcom) specifically against cdc2- and analyzed using Un-Scan-It image software (Ilk Scientific Corp.).

[1] = THP concentration in plasma and cortex by GC/MS; assay type: in vivo, mouse
Procedure: Cortices from brain hemisection of mice treated with THP or vehicle were collected at time of sacrifice for measurement of THP by GC/MS. Plasma was also collected at time of sacrifice. Three-month-old male non-Tg and 3×TgAD mice were subcutaneously injected with THP (1, 10, and 20 mg/kg BW) or vehicle (0.1% ethanol in PBS, n=4 in each group). The mice were sacrificed 24 hours later. THP concentration in plasma and brain were measured by GC/MS. […] In the 3×TgAD mouse cortex, a 10 mg/kg dose of THP results in a cortical level of 20 ng/g protein 24 hrs post injection.

PCNA and CDK1/cdc2 = PCNA and CDK1/cdc2 mRNA and protein in hippocampus (RT-PCR, Western blot); assay type: in vivo, mouse
Procedure: Protein was extracted from mouse hippocampus and separated by SDS gel as described in the literature. After transfer, PVDF membrane was plotted with monoclonal antibody for proliferating cell nuclear antigen (PCNA, 1:500, Zymed Laboratories Inc, San Francisco, Calif.) and then incubated with a horseradish peroxidase conjugated secondary antibody which is complementary to the primary antibody. Results were visualized by the ECL Plus Western Blotting Detection System (GE Healthcare, Amersham, Buckinghamshire, UK) followed by TMB development. Optical density was and analyzed by BioRad Quantity One software. The percent protein expression vs. control was normalized by loading control β-actin.
Brain samples derived from the same brains that underwent unbiased stereological analysis and GC/MC for THP detection were also analyzed by real-time RT-PCR and Western blot for expression of PCNA and CDK1 mRNA and protein.
To confirm the stereological analyses results, Western blot analyses of cell proliferation marker PCNA were carried out using samples derived from the same brains which underwent unbiased stereological analysis. PCNA, or Proliferating Cell Nuclear Antigen, is a protein that acts as a processivity factor for DNA polymerase delta subunit in eukaryotic cells and was induced in vitro by THP in cultured rat hippocampal progenitor cells.
Western blot analysis was performed to determine proliferating cell nuclear antigen (PCNA) expression levels in the hippocampus from the same animals that underwent behavior experiments.

CNPase = CNPase expression (myelination marker); assay type: in vivo, mouse
Procedure: Further studies were conducted using a dosing regime of once a week for six months administered subcutaneously. Three and six months old 3×Tg-AD and age-matched non-Tg mice were chosen for the experiments, since AD pathology (Aβ) starts development at 3-month and abundant accumulation at 6-months. Allopregnanolone was subcutaneously (s.c.) administrated with 10 mg/kg once per week for 6 months. For neurogenesis and neurosurvival study, BrdU, IdU and CIdU were intraperitoneal (i.p.) injected at the first 5 days, mid 5 days and 5 days before sacrifice during 6-month treatment. After 6 months of allopregnanolone treatment, mice, at 9- and 12-month old, were sacrificed.
Immunofluorescent staining shown the immunoreactivity increased in CA1, entorhinal cortex, and primary somatosensory cortex.

[2] = test system: three month old male 3×TgAD mouse hippocampus; experiment: Flow cytometry of BrdU labeled cells 24 hours after subcutaneous or transdermal THP; assay type: in vivo
Procedure: Flow cytometry assay detected total BrdU labeled cells 24 hours following THP administration via (A) subcutaneous and (B) transdermal routes. […] BrdU (100 mg/kg) was administered by intraperitoneal injection one hour after THP administration. Transdermal gel THP dose-response for 5, 10, and 50 mg/kg (FIG. 21B) was compared to 0 mg/kg control vehicle (negative control) and subcutaneous injection of 10 mg/kg (positive control) (FIG. 21A). […] Immunoblots of proliferating cell nuclear antigen (PCNA), an S-phase marker and cyclin dependent kinase 1 (CDK1/cdc2), an M-phase marker, are shown in FIGS. 21C and 21D, respectively. Hippocampus protein expression of PCNA and CDK1/cdc2 was normalized to β-tubulin loading control and compared relative to the vehicle control by immunoblot. […] The data were analyzed by one way ANOVA followed by a t test (two samples assuming equal variance) vs. vehicle. Data are presented as the mean±SEM, n=5, *=P<0.05, and **=P<0.01.

SMILES: CC(=O)[C@H]1CC[C@H]2[C@@H]3CC[C@H]4C[C@H](O)CC[C@]4(C)[C@H]3CC[C@]12C [THP, 3α-hydroxy-5α-pregnan-20-one]
- fold increase in the mitotic phenotype of the neural cells vs control (hippocampal neural cells; 10 nM or 100 nM THP, 24 hrs): ~2 fold
- concentration with greatest induction of the mitotic phenotype (hippocampal neural cells; 100, 250, 500 nM tested): 500 nm
- fold increase in the mitotic phenotype of the neural cells vs control (hippocampal neural cells; 100, 250 and 500 nM THP): 2-3 fold
- expression of nuclear proliferation marker Ki-67 (hippocampal neurons; 250 nM, 72 hours, immunostaining): induces the expression of the nuclear proliferation marker Ki-67
- expression of cdc2 (hippocampal neurons; 250 or 500 nM, 24 hrs, Western blot): increases expression of cell division control protein 2 (cdc2)
- dose dependence of THP in plasma and cortex ([1]; 1, 10 and 20 mg/kg BW s.c., 24 hours): linear dose dependent manner
- cortical level of THP ([1]; 3×TgAD mouse cortex, 10 mg/kg s.c., 24 hrs post injection): 20 ng/g protein
- THP level in 3×TgAD relative to nontransgenic treated mice ([1]; plasma and cortex, 24 hours): consistently lower level of THP in both plasma and cortex
- PCNA and CDK1 protein expression in hippocampi (PCNA and CDK1/cdc2; 10 mg/kg, Western blot, 3 months): greater PCNA and CDK1 protein expression in the hippocampi of 3×TgAD relative to the non-Tg mice
- PCNA expression vs vehicle 21 day after injection (PCNA and CDK1/cdc2; 3×TgAD mice, 6, 9 or 12-month-old): no significant difference
- PCNA mRNA in hippocampus (PCNA and CDK1/cdc2; 3×TgAD mice, real-time RT-PCR, 1-20 mg/kg): dose-dependent increase in PCNA mRNA
- PCNA immunoblot vs vehicle control (PCNA and CDK1/cdc2; 3×TgAD mice, three and six month, 24 hours after 10 mg/kg): increased
- PCNA expression vs vehicle (PCNA and CDK1/cdc2; non-Tg and 3×TgAD mice, 6- and 9-months, 24 hr): did not significantly affect PCNA expression
- CNPase expression, Western blot (CNPase; 9-month nonTg mice and 3×TgAD mice): increased CNPase expression
- CNPase expression, Western blot (CNPase; 12-month 3×TgAD mice): trended towards an increase
- CNPase expression, Western blot (CNPase; 12-month non-Tg mice): no significant difference
- BrdU cell numbers vs vehicle ([2]; 10 mg/kg dose): significantly increases BrdU cell numbers
- optimal dose to significantly increase BrdU cell numbers ([2]; subcutaneous and transdermal routes): 10 mg/kg
